Laboratory results as given in patent US20210015942A1, “ANTIBODY PROTAC CONJUGATES” (Development Center for Biotechnology, priority 2018, published 2021).

What was measured:
BRD4 = BRD4 (Homo sapiens, UniProt O60885); conditions: BT-474 cells (HER2-positive), 24 hours treatment, various concentrations up to 1 μM, western blot
BRD2, BRD3, and BRD4 = conditions: read-out: EC50, inhibitor of BRD2, BRD3, and BRD4; cited from earlier work

Structure (SMILES) | BRD4 protein degradation (BRD4) | EC50 (BRD2, BRD3, and BRD4) [nM]
Cc1sc2c(c1C)C(c1ccc(Cl)cc1)=N[C@@H](CC(=O)Nc1ccc(OCCOCCNCCOCCNc3cccc4c3C(=O)N(C3CCC(=O)NC3=O)C4=O)cc1)c1nnc(C)n1-2 (stereo partly drawn) [Compound 5] | as effective as ARV-825 | –
Cc1sc2c(c1C)C(c1ccc(Cl)cc1)=N[C@@H](CC(=O)Nc1ccc(OCCOCCN(CCOCCNc3cccc4c3C(=O)N(C3CCC(=O)NC3=O)C4=O)C(=O)OCc3ccc(NC(=O)[C@H](CCCNC(N)=O)NC(=O)[C@@H](NC(=O)CCCCCN4C(=O)C=CC4=O)C(C)C)cc3)cc1)c1nnc(C)n1-2 (stereo partly drawn) [Compound 7] | cannot degrade BRD4 protein | –
Cc1sc2c(c1C)C(c1ccc(Cl)cc1)=N[C@@H](CC(=O)Nc1ccc(O)cc1)c1nnc(C)n1-2 [OTX015] | – | 10 to 19
